According to patent US10774053B2, “HIV protease inhibitors” (Gilead Sciences, Inc., priority 2017, dated 2020):

Tested on: HIV-1 (IIIB) in MT-4 cells
Assay: microbe, parasite or virus in culture
Assay type: cell-based
Conditions: Human immunodeficiency virus 1, IIIB, MT4, MT-4 cells, HIV-1; read-out: MT4 EC50

Compound | EC50 [nM]
CC(C)(C)C[C@]1(c2ccc(-c3ccc(F)cn3)cc2)NC(=N)N([C@H](COC(=O)NC2(C(F)(F)F)CC2)c2ccc(Cl)c(-n3ncnc3C(F)F)c2)C1=O [Compound 274] | 11.1
CC(C)(C)C[C@]1(c2ccc(-c3ncc(F)cn3)cc2)NC(=N)N([C@H](COC(=O)NC2(C(F)(F)F)CC2)c2ccc(Cl)c(-n3ncnc3C(F)F)c2)C1=O [Compound 275] | 12.8
CC(C)(C)C[C@]1(c2ccc(-c3ccsn3)cc2)NC(=N)N([C@H](COC(=O)NC2(C(F)(F)F)CC2)c2ccc(Cl)c(-n3ncnc3C(F)F)c2)C1=O [Compound 276] | 12.5
CC(C)(C)C[C@]1(c2ccc(-c3cncs3)cc2)NC(=N)N([C@H](COC(=O)NC2(C(F)(F)F)CC2)c2ccc(Cl)c(-n3ncnc3C(F)F)c2)C1=O [Compound 277] | 6.99
CC(C)(C)C[C@]1(c2ccc(-c3ccc(C(F)F)nc3)cc2F)NC(=N)N([C@H](COC(=O)NC2(C(F)(F)F)CC2)c2ccc(Cl)c(-n3ncnc3C(F)F)c2)C1=O [Compound 279] | 23.5
CC(C)(C)C[C@]1(c2ccc(C#N)cc2)NC(=N)N([C@H](COC(=O)NC2(C(F)(F)F)CC2)c2ccc(Cl)c(-n3ncnc3C(F)F)c2)C1=O [Compound 280] | 20.7
CC(C)(C)C[C@]1(c2ccc(-c3ccc(C#N)cc3)cc2)NC(=N)N([C@H](COC(=O)NC2(C(F)(F)F)CC2)c2ccc(Cl)c(-n3ncnc3C(F)F)c2)C1=O [Compound 281] | 22.2
CC(C)(C)C[C@]1(c2ccc(-c3ccc(OC(F)F)cc3)cc2)NC(=N)N([C@H](COC(=O)NC2(C(F)(F)F)CC2)c2ccc(Cl)c(-n3ncnc3C(F)F)c2)C1=O [Compound 282] | 62
CC(C)(C)C[C@]1(c2ccc(-c3ccc4c(c3)OC(F)(F)O4)cc2)NC(=N)N([C@H](COC(=O)NC2(C(F)(F)F)CC2)c2ccc(Cl)c(-n3ncnc3C(F)F)c2)C1=O [Compound 283] | 113
CC(C)(C)C[C@]1(c2ccc(-c3ncns3)cc2F)NC(=N)N([C@H](COC(=O)NC2(C(F)(F)F)CC2)c2ccc(Cl)c(-n3ncnc3C(F)F)c2)C1=O [Compound 284] | 11.4
CC(C)(C)C[C@]1(c2ccc(-c3ccn(C(F)F)n3)cc2F)NC(=N)N([C@H](COC(=O)NC2(C(F)(F)F)CC2)c2ccc(Cl)c(-n3ncnc3C(F)F)c2)C1=O [Compound 285] | 16.8
CC(C)(C)C[C@]1(c2ccc(-c3cnn(C(F)F)c3)cc2)NC(=N)N([C@H](COC(=O)N[C@@H]2C[C@@H]2F)c2ccc(Cl)c(-n3ncnc3C(F)F)c2)C1=O [Compound 287] | 7.55
CC(C)(C)C[C@]1(c2ccc(-c3cnn(C(F)F)c3)cc2)NC(=N)N([C@H](COC(=O)N[C@H]2C[C@H]2F)c2ccc(Cl)c(-n3ncnc3C(F)F)c2)C1=O [Compound 288] | 6.07
CC(C)(C)C[C@]1(c2ccc(-c3cnn(S(C)(=O)=O)c3)cc2)NC(=N)N([C@H](COC(=O)NC2(C(F)(F)F)CC2)c2ccc(Cl)c(-n3ncnc3C(F)F)c2)C1=O [Compound 292] | 14.2
CC(C)(C)C[C@]1(c2ccc(-c3cnn(S(C)(=O)=O)c3)c(F)c2)NC(=N)N([C@H](COC(=O)NC2CC2(F)F)c2ccc(Cl)c(-n3ncnc3C(F)F)c2)C1=O (stereo partly drawn) [Compound 293] | 10.5
CC(C)(C)C[C@]1(c2ccc(-c3cnn(C4CC4)c3)cc2)NC(=N)N([C@H](COC(=O)N[C@H]2CC2(F)F)c2ccc(Cl)c(-n3ncnc3C(F)F)c2)C1=O [Compound 294] | 8.74
Cn1ccc(-c2ccc([C@@]3(CC(C)(C)C)NC(=N)N([C@H](COC(=O)N[C@H]4CC4(F)F)c4ccc(Cl)c(-n5ncnc5C(F)F)c4)C3=O)cc2)n1 [Compound 296] | 8.57
Cn1ccc(-c2ccc([C@@]3(CC(C)(C)C)NC(=N)N([C@H](COC(=O)NCC(F)(F)F)c4ccc(Cl)c(-n5ncnc5C(F)F)c4)C3=O)cc2)n1 [Compound 297] | 10.3
CC(C)(C)C[C@]1(c2ccc(-c3cnn(C4CC4)c3)c(F)c2)NC(=N)N([C@H](COC(=O)NC2CC2(F)F)c2ccc(Cl)c(-n3ncnc3C(F)F)c2)C1=O (stereo partly drawn) [Compound 298] | 7.83
CC(C)(C)C[C@]1(c2ccc(-c3cnn(C(F)F)c3)c(F)c2)NC(=N)N([C@H](COC(=O)NCC(C)(F)F)c2ccc(Cl)c(-n3ncnc3C(F)F)c2)C1=O [Compound 299] | 13
CC(C)(C)C[C@]1(c2ccc(-c3cnn(S(C)(=O)=O)c3)c(F)c2)NC(=N)N([C@H](COC(=O)NCC(F)(F)F)c2ccc(Cl)c(-n3ncnc3C(F)F)c2)C1=O [Compound 300] | 12.5
CC(C)(C)C[C@]1(c2ccc(-c3cnn(S(=O)(=O)C4CC4)c3)c(F)c2)NC(=N)N([C@H](COC(=O)NCC(F)(F)F)c2ccc(Cl)c(-n3ncnc3C(F)F)c2)C1=O [Compound 302] | 18.1
CC(C)(C)C[C@]1(c2ccc(-c3cnn(C4CC4)c3)c(F)c2)NC(=N)N([C@H](COC(=O)NC2(C(F)(F)F)CC2)c2ccc(Cl)c(-n3ncnc3C(F)F)c2)C1=O [Compound 306] | 10.9
CC(C)(C)C[C@]1(c2ccc(-c3cnn(C4CC4)c3)c(F)c2)NC(=N)N([C@H](COC(=O)NCC(F)(F)F)c2ccc(Cl)c(-n3ncnc3C(F)F)c2)C1=O [Compound 307] | 12.7

Compound | EC50 [nM]
CC(C)(C)C[C@]1(c2ccc(-n3nccn3)c(F)c2)NC(=N)N([C@H](COC(=O)NC2(C(F)(F)F)CC2)c2ccc(Cl)c(-n3ncnc3C(F)F)c2)C1=O [Compound 309] | 13.4
C[C@@H](NC(=O)OC[C@H](c1ccc(Cl)c(-n2ncnc2C(F)F)c1)N1C(=N)N[C@](CC(C)(C)C)(c2ccc(-c3cnn(C(F)F)c3)cc2)C1=O)C(F)(F)F [Compound 310] | 20.3
CC(C)(C)C[C@]1(c2ccc(-c3ccc(S(C)(=O)=O)cc3)c(F)c2)NC(=N)N([C@H](COC(=O)NC2(C(F)(F)F)CC2)c2ccc(Cl)c(-n3ncnc3C(F)F)c2)C1=O [Compound 313] | 19.5
C[C@H](NC(=O)OC[C@H](c1ccc(Cl)c(-n2ncnc2C(F)F)c1)N1C(=N)N[C@](CC(C)(C)C)(c2ccc(-c3cnn(C4CC4)c3)c(F)c2)C1=O)C(F)(F)F [Compound 314] | 8.19
C[C@H](NC(=O)OC[C@H](c1ccc(Cl)c(-n2ncnc2C(F)F)c1)N1C(=N)N[C@](CC(C)(C)C)(c2ccc(-c3cnn(C4CC4)c3)cc2F)C1=O)C(F)(F)F [Compound 315] | 9.97
CC(C)(C)C[C@]1(c2ccc(-c3cnn(C4CC4)c3)c(Cl)c2)NC(=N)N([C@H](COC(=O)NC2(C(F)(F)F)CC2)c2ccc(Cl)c(-n3ncnc3C(F)F)c2)C1=O [Compound 316] | 13.3
CC(C)(C)C[C@]1(c2ccc(-c3cn(C4CC4)nc3F)cc2)NC(=N)N([C@H](COC(=O)NC2(C(F)(F)F)CC2)c2ccc(Cl)c(-n3ncnc3C(F)F)c2)C1=O [Compound 318] | 13.2
CC(C)(C)C[C@]1(c2ccc(-c3cnn(C4CC4)c3)cc2)NC(=N)N([C@H](COC(=O)NC2(C(F)(F)F)CC2)c2ccc(Cl)c(-n3cncn3)c2)C1=O [Compound 319] | 17.8
CC(C)(C)C[C@]1(c2ccc(-c3ccccn3)cc2)NC(=N)N([C@H](COC(=O)NC2(C(F)(F)F)CC2)c2ccc(Cl)c(-n3cncn3)c2)C1=O [Compound 320] | 22.5
CC(C)(C)C[C@]1(c2ccc(-c3ccns3)cc2)NC(=N)N([C@H](COC(=O)NC2(C(F)(F)F)CC2)c2ccc(Cl)c(-n3cncn3)c2)C1=O [Compound 321] | 20.8
CC(C)(C)C[C@]1(c2ccc(-c3ccsn3)cc2)NC(=N)N([C@H](COC(=O)NC2(C(F)(F)F)CC2)c2cccc(-n3ncnc3C(F)F)c2)C1=O [Compound 322] | 39
CC1(NC(=O)OC[C@H](c2ccc(Cl)c(-n3cccn3)c2)N2C(=N)N[C@](CC(C)(C)C(F)(F)F)(c3ccc(-c4cnn(C(F)F)c4)cc3)C2=O)CC1 [Compound 323] | 50.7
CC1(NC(=O)OC[C@H](c2ccc(Cl)c(-n3cccn3)c2)N2C(=N)N[C@](CC(C)(C)C(F)(F)F)(c3ccc(-c4cnn(C5CC5)c4)cc3)C2=O)CC1 [Compound 324] | 27.8
CC(C)(C)C[C@]1(c2ccc(N3CCn4c(nnc4C(F)(F)F)C3)cc2)NC(=N)N([C@H](COC(=O)NC2(C(F)(F)F)CC2)c2ccc(Cl)c(-n3ncnc3C(F)F)c2)C1=O [Compound 326] | 52.9
CC(C)(F)C[C@]1(c2ccc(-c3cnccn3)cc2)NC(=N)N([C@H](COC(=O)NC2(C(F)(F)F)CC2)c2ccc(Cl)c(-n3ncnc3C(F)F)c2)C1=O [Compound 328] | 22.4
CC(C)(F)C[C@]1(c2ccc(-c3ncccn3)cc2)NC(=N)N([C@H](COC(=O)NC2(C(F)(F)F)CC2)c2ccc(Cl)c(-n3ncnc3C(F)F)c2)C1=O [Compound 329] | 23
CC(C)(C)C[C@]1(c2ccc(-c3cnn(C(F)F)c3)cc2)NC(=N)N([C@H](COC(=O)N[C@H]2C[C@@H]2C(F)F)c2ccc(Cl)c(-n3ncnc3C(F)F)c2)C1=O [Compound 332] | 12.3
CC(C)(C)C[C@]1(c2ccc(-c3cnn(C(F)F)c3)cc2)NC(=N)N([C@H](COC(=O)N[C@@H]2C[C@H]2C(F)F)c2ccc(Cl)c(-n3ncnc3C(F)F)c2)C1=O [Compound 333] | 10.5
CC(C)(C)C[C@]1(c2ccc(-c3cnn(C(F)F)c3)cc2)NC(=N)N([C@H](COC(=O)N[C@@H]2C[C@H]2F)c2ccc(Cl)c(-n3ncnc3C(F)F)c2)C1=O [Compound 337] | 9.75
CC(C)(C)C[C@]1(c2ccc(-c3cnn(C(F)F)c3)cc2)NC(=N)N([C@H](COC(=O)N[C@H]2C[C@@H]2F)c2ccc(Cl)c(-n3ncnc3C(F)F)c2)C1=O [Compound 338] | 9.94
CC(C)(C)C[C@]1(c2ccc(-c3cnn(C(F)F)c3)c(F)c2)NC(=N)N([C@H](COC(=O)N[C@H]2CC2(F)F)c2ccc(Cl)c(-n3ncnc3C(F)F)c2)C1=O [Compound 340] | 6.67
CC(C)(C)C[C@]1(c2ccc(-c3cnn(C(F)F)c3)cc2)NC(=N)N([C@H](COC(=O)N[C@@H]2CC23CC3)c2ccc(Cl)c(-n3ncnc3C(F)F)c2)C1=O [Compound 341] | 8.54
CC(C)(C)C[C@]1(c2ccc(-c3cnn(C(F)F)c3)cc2)NC(=N)N([C@H](COC(=O)N[C@H]2CC23CC3)c2ccc(Cl)c(-n3ncnc3C(F)F)c2)C1=O [Compound 342] | 8.92
C[C@@H](NC(=O)OC[C@H](c1ccc(Cl)c(-n2ncnc2C(F)F)c1)N1C(=N)N[C@](CC(C)(C)C)(c2ccc(-c3cnn(C(F)F)c3)cc2)C1=O)C(F)F [Compound 343] | 17
